Results published in ChEMBL document CHEMBL1150489, “Increase of the anti-HIV activity of D4T in human T-cell culture by the use of the sate pronucleotide approach” (Bioorg Med Chem Lett, 1995).

Columns and labels:
CEM-TK(-) [1] = assay: (§1) Tested in vitro for the antiviral activity in CEM/TK- cells infected with HIV-1; format: functional; settings: Homo sapiens
CEM-TK(-) [2] = assay: as §1; format: functional, cell-based; settings: Homo sapiens
CEM-SS [3] = assay: (§2) Tested in vitro for the antiviral activity in CEM-SS cells infected with HIV-1; format: functional, cell-based; settings: Homo sapiens
CEM-SS [4] = assay: as §2; format: functional; settings: Homo sapiens
MT4 [5] = assay: (§3) Tested in vitro for the antiviral activity in MT-4 cells infected with HIV-1; format: functional; settings: Homo sapiens
MT4 [6] = assay: as §3; format: functional, cell-based; settings: Homo sapiens
MT4 [7] = assay: as §3; format: functional, Homo sapiens
[8] = (§4) Tested in vitro for the antiviral activity in PBM cells infected with HIV-1; format: functional, cell-based; settings: Homo sapiens, PBMC
[9] = as §4; format: functional; settings: Homo sapiens, PBMC
CEM-TK(-) [10] = assay: as §1; format: functional, Homo sapiens
CEM-SS [11] = assay: as §2; format: functional, Homo sapiens

SMILES | CC50 (CEM-TK(-) [1]) [µM] | EC50 (CEM-TK(-) [2]) [µM] | EC50 (CEM-SS [3]) [µM] | CC50 (CEM-SS [4]) [µM] | CC50 (MT4 [5]) [µM] | EC50 (MT4 [6]) [µM] | Reduction (MT4 [7]) [%] | EC50 [8] [µM] | CC50 [9] [µM] | Reduction (CEM-TK(-) [10]) [%] | Reduction (CEM-SS [11]) [%]
CC(=O)SCCOP(=O)(OCCSC(C)=O)OCC1C=CC(n2cc(C)c(=O)[nH]c2=O)O1 (stereo not given) | 60 | 0.012 | 0.006 | 68 | > 100 | 0.016 | 19 | 0.007 | 22 | – | –
Cc1cn([C@H]2C=C[C@@H](CO)O2)c(=O)[nH]c1=O [STAVUDINE] | > 100 | 10 | 0.059 | > 100 | > 100 | 0.28 | 10 | 0.05 | 42 | 6 | 21
